# Laboratory results taken from patent publication US20040037837A1 (priority 2000, published 2004).
# Experiments:
# [1] = test system: autologous monocyte-derived macrophages infected with M. bovis BCG, M. tuberculosis or rVV expressing Ag85A; format: cell-based, human; details: label = peptide used to generate the STCL (or pulsed control peptide)
# [2] = test system: Uncultured PBMCs from HLA-A2 donors; format: cell-based, human
# [3] = test system: HLA-A2 transgenic C57B1/6 mice; format: in vivo; details: subcutaneous peptides in IFA
# [4] = test system: THP-1 cells pulsed with peptide; test: 51Cr release cytotoxicity assay of peptide specific CD8+ T cells against peptide pulsed THP-1 cells; format: cell-based, human; details: 50:1 E:T ratio; label = peptide pulsed on targets; STCL after 2 weeks of stimulation
Sequence,"recognition and lysis of M. bovis BCG, M. tuberculosis and rVV85A infected macrophages by peptide specific CTLs [1]",mean number of IFN-γ sfc's enumerated from 5×10^5 PBMCs [2],"recognition of peptide with feeder cells from wild type C57B1/6 mice ([3]; 7 days post first boost, lymph node)","IFNγ response to peptide in the lymph node ([3]; 7 days post first boost, autologous feeders)",specific lysis of peptide pulsed THP-1 cells by P242-250 reactive CD8^+ T cells [4],peptide specific IFNγ producing T cells in the spleens ([3]; 7 days post second boost),specific lysis of peptide pulsed THP-1 cells by P48-56 stimulated CD8^+ T cells [4] [%]
KLIANNTRV (listed as Mycobacterium tuberculosis) [P242-250],able to recognise and lyse,22,not recognised,a response to P242-250 was seen,79%,,
GLPVEYLQV (listed as Mycobacterium tuberculosis) [P48-56],able to recognise and lyse,27,,,no significant lysis,resulted in a P48-56 response,76
